# From patent US20260015592A1, “NEDDYLATION-ACTIVATING ENZYME INHIBITORS AS VIRAL SENSITIZERS AND USES THEREOF” (priority 2022, published 2026)
# Tested on: melanoma B16 tumors overexpressing OVA antigen (B16-OVA)
# Details: mouse, in vivo
smiles,measurement,value
"NS(=O)(=O)OC[C@@H]1C[C@H](n2ccc3c(N[C@H]4CCc5ccccc54)ncnc32)C[C@@H]1O [pevonedistat, ((1S,2S,4S)-4-(4-(((S)-2,3-dihydro-1H-inden-1-yl)amino)-7H-pyrrolo[2,3-d]pyrimidin-7-yl)-2-hydroxycyclopentyl) methyl sulfamate]",survival,significantly prolonged survival
